Data on eight molecules can be found in ChEMBL document CHEMBL1201862, “PubChem BioAssay data set” (2004).

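Grown in 96-well plates, cells were treated for 48 hours with each compound at five concentrations. Insufficient inhibition: endpoint recorded as highest concentration tested. Abbreviation: GI50, concentration required for 50% inhibition of growth.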 Calls of active or inactive are those of the source. No stated cut-off is given here; in the data, active = GI50 up to about 1.1 µM and inactive = higher. Some results are limits rather than exact numbers.

Test systems include SK-MEL-5; IGROV-1; HCT-15; SK-MEL-28; RPMI-8226; UACC-257; SK-OV-3; UO-31; KM12; NCI-H460; TK-10; M14; SF-539; NCI-H23; HOP-92; LOX IMVI; SF-268; EKVX; CCRF-CEM; SNB-19.
Assay in all cases: NCI-60 cell line screen, 48 h

Consider `O=S(=O)(N/C(=N\O)Nc1ccc(Cl)cc1)c1ccccc1`, for which the GI50 was 9.04 µM (inactive) in the experiment with SK-MEL-5; 10.5 µM (inactive) in the experiment on IGROV-1; 7.66 µM with HCT-15; 10.9 µM (inactive) in the experiment with SK-MEL-28; 4.13 µM (inactive) with RPMI-8226; 10.5 µM (inactive) with UACC-257. The GI50 in the experiment on SK-OV-3 was 27.9 µM (inactive); in the experiment on UO-31 it was 3.23 µM (inactive); in the experiment with KM12, 24.2 µM (inactive); in the experiment with NCI-H460 it was 13.4 µM (inactive); in the experiment on TK-10, 14 µM (inactive); with M14 it was 12.7 µM (inactive). In addition, the GI50 is 4.22 µM (inactive) in the experiment with SF-539; 16.2 µM (inactive) in the experiment with NCI-H23; 2.94 µM (inactive) in the experiment on HOP-92; 13.4 µM (inactive) in the experiment with LOX IMVI; 10.8 µM (inactive) with SF-268; 10.3 µM (inactive) in the experiment on EKVX. Besides, the GI50 in the experiment with CCRF-CEM is 33.9 µM (inactive); in the experiment with SNB-19 it was 22.8 µM (inactive).
For the molecule `CC1(C)CCC[C@]2(C)[C@@H](C=O)C(C=O)=CC[C@@H]12` [POLYGODIAL], the GI50 is 15.6 µM (inactive) in the experiment with SK-MEL-5; 19 µM (inactive) in the experiment with IGROV-1; 17 µM in the experiment with HCT-15; 43.2 µM (inactive) in the experiment with SK-MEL-28; 10.7 µM (inactive) in the experiment with RPMI-8226; 17.1 µM (inactive) with UACC-257. Besides, the GI50 with SK-OV-3 is 30.8 µM (inactive); in the experiment on UO-31, 16.4 µM (inactive); with KM12 it was 14.7 µM (inactive); in the experiment on TK-10, 25.9 µM (inactive); with M14, 17.5 µM (inactive); in the experiment with SF-539, 19.3 µM (inactive). Besides, the GI50 is 28 µM (inactive) in the experiment on NCI-H23; 20.6 µM (inactive) in the experiment with HOP-92; 19.1 µM (inactive) in the experiment with LOX IMVI; 15.3 µM (inactive) in the experiment on SF-268; 24.8 µM (inactive) in the experiment with EKVX; 20.3 µM (inactive) with CCRF-CEM. Further, the GI50 in the experiment on SNB-19 was 18.2 µM (inactive).
Consider `CCCCCNC(=O)c1c(O)[nH]c(=S)[nH]c1=O`, for which the GI50 in the experiment on SK-MEL-5 was > 100 µM (inactive); in the experiment on IGROV-1, > 100 µM (inactive); in the experiment on HCT-15 it was 90.6 µM; in the experiment with SK-MEL-28 it was > 100 µM (inactive); with RPMI-8226, > 100 µM (inactive); in the experiment on UACC-257 it was > 100 µM (inactive). Moreover, the GI50 with SK-OV-3, in the experiment on KM12, in the experiment with NCI-H460, with TK-10, with M14 and with SF-539 was > 100 µM (inactive) each time. Besides, the GI50 in the experiment on NCI-H23, in the experiment on HOP-92, in the experiment on LOX IMVI, in the experiment with SF-268, in the experiment with CCRF-CEM and in the experiment on SNB-19 was > 100 µM (inactive) in each case.
In the case of `O=c1cc(O)ccn1C1C=C(CO)C(O)C1O` (stereo not given), the GI50 with SK-MEL-5 was > 625 µM (inactive); in the experiment on IGROV-1, > 625 µM (inactive); in the experiment with HCT-15 it was more than 625 µM; in the experiment on SK-MEL-28, > 625 µM (inactive); in the experiment with RPMI-8226, 411 µM (inactive); with SK-OV-3 it was > 625 µM (inactive). The GI50 with UO-31 was > 625 µM (inactive); in the experiment on KM12, > 625 µM (inactive); in the experiment on NCI-H460, 131 µM (inactive); in the experiment with SF-539 it was > 625 µM (inactive); in the experiment on HOP-92, 192 µM (inactive); with LOX IMVI, 455 µM (inactive). Further, the GI50 in the experiment on SF-268, in the experiment on CCRF-CEM and in the experiment on SNB-19 was > 625 µM (inactive) in each case.
Regarding `Cc1c(/C=N/NC(=O)c2ccccc2O)c(=O)n(-c2ccccc2)n1C`, the GI50 with IGROV-1 was > 100 µM (inactive); in the experiment with HCT-15 it was 29.2 µM; in the experiment on SK-MEL-28, > 100 µM (inactive); in the experiment on RPMI-8226 it was 48.2 µM (inactive); with UACC-257 it was > 100 µM (inactive); with SK-OV-3, > 100 µM (inactive). For the same molecule, the GI50 in the experiment on UO-31 was 54.7 µM (inactive); with KM12, > 100 µM (inactive); with NCI-H460 it was 47.1 µM (inactive); in the experiment with TK-10 it was > 100 µM (inactive); with M14 it was > 100 µM (inactive); in the experiment on SF-539, > 100 µM (inactive). The GI50 was > 100 µM (inactive) with NCI-H23; > 100 µM (inactive) in the experiment on HOP-92; 45.4 µM (inactive) in the experiment with LOX IMVI; > 100 µM (inactive) in the experiment with SF-268; 49.2 µM (inactive) with EKVX; 50.2 µM (inactive) in the experiment with CCRF-CEM. The GI50 in the experiment with SNB-19 is > 100 µM (inactive).
For `COc1ccc(-c2cc(O)c3c(C)cc(C)nc3n2)cc1`, the GI50 with IGROV-1 was 23.3 µM (inactive); with HCT-15 it was 24.4 µM; in the experiment on SK-MEL-28 it was 47.9 µM (inactive); in the experiment with RPMI-8226, 18 µM (inactive); in the experiment on UACC-257, 25.9 µM (inactive); in the experiment with SK-OV-3 it was > 100 µM (inactive). In addition, the GI50 is 38 µM (inactive) in the experiment with UO-31; 34.8 µM (inactive) in the experiment on KM12; 25.1 µM (inactive) in the experiment with TK-10; 35.3 µM (inactive) in the experiment on M14; > 100 µM (inactive) in the experiment with SF-539; 28.6 µM (inactive) in the experiment with NCI-H23. Also, the GI50 is 26.9 µM (inactive) in the experiment on HOP-92; 27.4 µM (inactive) with LOX IMVI; 53 µM (inactive) in the experiment with SF-268; 45.2 µM (inactive) in the experiment on EKVX; 16.9 µM (inactive) in the experiment on CCRF-CEM; 49.4 µM (inactive) in the experiment with SNB-19.
Consider `C/C1=C\[C@@H](C)C[C@@H](C)OC(=O)[C@@H](C)NC(=O)[C@H](Cc2ccc(O)c(Br)c2)N(C)C(=O)CNC(=O)[C@H](C)C1`, for which the GI50 with SK-MEL-5 was < 0.01 µM (active); with IGROV-1, < 0.01 µM (active); with HCT-15, less than 0.01 µM; in the experiment on SK-MEL-28 it was 0.0284 µM (active); in the experiment with RPMI-8226, < 0.01 µM (active); with UACC-257 it was < 0.01 µM (active). Besides, the GI50 with SK-OV-3 was < 0.01 µM (active); in the experiment on UO-31 it was 0.026 µM (active); in the experiment on NCI-H460, < 0.01 µM (active); with TK-10, < 0.0157 µM (active); in the experiment with M14 it was < 0.0202 µM (active); in the experiment with SF-539, < 0.01 µM (active). Moreover, the GI50 in the experiment with HOP-92 was < 0.01 µM (active); in the experiment on LOX IMVI, < 0.01 µM (active); in the experiment on SF-268, < 0.0193 µM (active); in the experiment on EKVX, 0.117 µM (active); in the experiment on CCRF-CEM, < 0.01 µM (active); in the experiment with SNB-19, 0.295 µM (active).
Regarding `CCOC(=O)CCC(NC(=O)c1ccc(Nc2nc3cc(C(F)(F)F)ccc3nc2C(=O)OCC)cc1)C(=O)OCC` (stereo not given), the GI50 in the experiment on SK-MEL-5 was 23.9 µM (inactive); in the experiment with IGROV-1, 17.1 µM (inactive); with HCT-15 it was 29.9 µM; with SK-MEL-28, 12.1 µM (inactive); in the experiment with RPMI-8226, 24.9 µM (inactive); in the experiment with UACC-257, 11 µM (inactive). The GI50 in the experiment with UO-31 was 11.6 µM (inactive); in the experiment with KM12, > 10 µM (inactive); in the experiment on NCI-H460, 18 µM (inactive); in the experiment on M14 it was 4.51 µM (inactive); with SF-539 it was 12.6 µM (inactive); with NCI-H23, 16 µM (inactive). Besides, the GI50 in the experiment with HOP-92 was 0.975 µM (active); with LOX IMVI, 16.8 µM (inactive); in the experiment on SF-268, 14.1 µM (inactive); in the experiment on EKVX it was 15.9 µM (inactive); with CCRF-CEM, > 100 µM (inactive); in the experiment with SNB-19 it was 10.7 µM (inactive).
